Experimental data as given in patent publication US20090123501A1, “INHIBITION OF THE SH2-DOMAIN CONTAINING PROTEIN TYR-PHOSPHATASE, SHP-1, TO ENHANCE VACCINES” (Baylor College of Medicine, priority 2007, published 2009).

Legend:
B16 tumors = assay: DC vaccination of mice bearing ectopic B16 melanoma tumors; type: in vivo, C57BL/6 mice
Procedure: The B16 melanoma, which is both aggressive and poorly immunogenic, expresses tyrosinase related protein-2 (Trp-2) of which peptide, […] (SEQ ID NO:13), is recognized by CD8^+ T cells in the context of H-2K^b. B16 represents a much more difficult tumor to treat than TRAMP and is considered the “gold standard” for ectopic tumor models in the C57BL/6 background. BMDCs were prepared as described above, pulsed with the Trp-2 and then transduced with either Ad5-SHP-1 shRNA or the control Ad5-scrambled-shRNA virus at 40,000 viral particles/cell. 6-8 week C57BL/6 mice, bearing B16 tumors (5×10^5 cells injected s.c. on the dorsal flank three days prior to vaccination), were given a single i.p. vaccination with 2×10^6 treated DCs or left untreated. Tumors were measured every 2-4 days until termination of the experiment and tumor volume was calculated as described above. […] To determine if this difference was statistically significant, ANOVA and Tukey-Kramer HSD multiple comparisons test were performed.
BMDCs were prepared as described above, pulsed with the Trp-2 and then transduced with either Ad5-SHP-1 shRNA or the control Ad5-scrambled-shRNA virus at 40,000 viral particles/cell. […] Tumors were measured every 2-4 days until termination of the experiment and tumor volume was calculated as described above. […]

SHP-1 mRNA = SHP-1 mRNA knock-down by quantitative RT-PCR in RAW cells; type: cell-based, murine; conditions: relative to no virus treatment
Text: Two mouse SHP-1 specific small hairpin RNAs (shRNA) sequences, 272 and 1149, (referred to by their nucleotide position from the start site of the coding sequence in Genbank mRNA Accession #BC012660) were designed and cloned into the adenoviral vector pAd-BLOCK-iT-DEST RNAi (Invitrogen, Carlsbad, Calif.) which provides U6 polymerase […] promoter-driven expression of the shRNA. The exemplary shRNA sequences Ad5-shRNA#1149 (SEQ ID NO:11) and Ad5-shRNA#272 (SEQ ID NO:12) are provided as follows: […] (SEQ ID NO:11) and […] (SEQ ID NO:12), wherein sequence underlined in the shRNA is the exemplary SHP-1 specific palandromic 21-mer. Adenovirus carrying the appropriate sequence were produced and expanded in HEK-293 cells (ATCC Manassas, Va.). These viruses were then plaque purified and the ability to knock-down SHP-1 mRNA was tested in RAW cells, a murine macrophage-like cell line, by quantitative RT-PCR and are shown as a percent of the no virus treatment (FIG. 2A and FIG. 2B). Adenovirus expressing green fluorescent protein was used as a negative control for viral treatment (FIG. 2C). […] The ability of this shRNA to knock down SHP-1 protein was examined by western blot (FIG. 2D). A large scale, high titer, preparation of Ad-shRNA#1149 was produced by the Viral Vector Core Laboratory at Baylor College of Medicine and used in subsequent studies.

Akt = assay: LPS stimulated Akt signaling in BMDCs, western blot; type: cell-based, C57BL/6 mice; conditions: CD11c positive BMDCs
Procedure: DC survival has been linked with activation of Akt/protein kinase B (PKB) family proteins, major effectors of phosphatidylinositol 3-kinase (PI3K) family members. LPS stimulated Akt signaling BMDCs was examined to determine if SHP-1 mediated survival might be working through this mechanism. MACS sorted for CD11c positive BMDCs were infected with either Ad5-SHP-1-shRNA or Ad5-scrambled-shRNA or left untreated. Cells (10^7) per group were treated with 1 μg/mL LPS for the times indicated or left untreated. Lysates were analyzed by western blot for phosphorylated Akt. […] This observation provides a mechanism for the increased survival seen when SHP-1 signaling was inhibited, in certain embodiments (FIG. 8). LPS stimulation also appears to enhance the total level of SHP-1 protein in DCs as shown by the SHP-1 blot for cells treated with Ad5-scrambled-shRNA.

BMDCs = assay: In vivo DC migration out of the footpad, luciferase IVIS imaging; set-up: species or system albino C57BL/6 mice; conditions: 2×10^6 transduced BMDCs injected into footpad
Procedure: To determine if SHP-1 inhibition enhanced DC migration in vivo, BMDCs were prepared as described above but were transduced with an adenovirus expressing a clickbeetle red-shifted luciferase in addition to either Ad5-SHP-1-shRNA or Ad5-scrambled-shRNA. Transduced cells (2×10^6) were injected into the contralateral footpads of tyrosinase-deficient albino C57BL/6 mice (B6(Cg)-Tyr^c-2J/J, Jackson Laboratory). At the specified intervals mice were injected i.p. with 100 μl of 10 mg/mL luciferin and imaged in vivo using IVIS® (Caliper Life Sciences, Hopkinton, Mass.).

## CACCGGAGCATGACACAGCAGAATACGAATATTCTGCTGTGTCATGCTCC (chemistry not given here) [Ad5-SHP-1-shRNA]
B16 tumors; Trp-2 pulsed DCs, 40,000 viral particles/cell, single i.p. 2×10^6 DCs, beginning at day 18
  B16 mean tumor volume (growth curves): markedly smaller mean tumor volumes
B16 tumors; Trp-2 pulsed DCs, compared with either control group
  B16 mean tumor volume (ANOVA): significantly lower mean tumor volume
SHP-1 mRNA
  reduction in SHP-1 mRNA: > 5 fold reduction
Akt
  steady state expression of total Akt protein: enhanced the steady state expression of total Akt protein
Akt; 1 μg/mL LPS
  LPS mediated Akt phosphorylation: enhanced LPS mediated Akt phosphorylation
BMDCs
  DCs in the footpad at 24 hours post-injection: undetectable in the footpad by 24 hours post injection
BMDCs; post-injection
  time by which DCs are seen to migrate out of the footpad: ≤ 2 h
